Measurements taken from ChEMBL document CHEMBL1201862, “PubChem BioAssay data set” (2004).
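Step 1: Grow cells in 96-well plates. Step 2: Expose to compound for 48 hours at 5 concentrations. Step 3: Interpolate endpoints linearly; if unreached, use highest concentration. GI50 = concentration required for 50% inhibition of growth.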 Calls of active or inactive are those of the source. No stated cut-off is given here; in the data, active = GI50 up to about 1.1 µM and inactive = higher.

Columns and labels:
Experiment in all cases: growth of human tumour cells (NCI), 48 h
[1] = test system: MDA-MB-435
[2] = test system: HT-29
[3] = test system: SNB-75
[4] = test system: OVCAR-5
[5] = test system: NCI/ADR-RES
[6] = test system: A549
[7] = test system: HOP-62
[8] = test system: NCI-H460
[9] = test system: MOLT-4
[10] = test system: KM12
[11] = test system: OVCAR-4
[12] = test system: Hs-578T
[13] = test system: HOP-92
[14] = test system: SK-MEL-2
[15] = test system: CAKI-1
[16] = test system: NCI-H226
[17] = test system: UACC-62
[18] = test system: LOX IMVI

SMILES | GI50 [1] | GI50 [2] | GI50 [3] | GI50 [4] | GI50 [5] | GI50 [6] | GI50 [7] | GI50 [8] | GI50 [9] | GI50 [10] | GI50 [11] | GI50 [12] | GI50 [13] | GI50 [14] | GI50 [15] | GI50 [16] | GI50 [17] | GI50 [18]
COc1cc(C2c3cc4c(cc3[C@@H](Nc3ccc(F)cc3)C3COC[C@H]23)OCO4)cc(OC)c1O (stereo partly specified) | 6.15 µM (inactive) | 3.44 µM (inactive) | 2.77 µM (inactive) | 3.62 µM (inactive) | 6.92 µM (inactive) | 0.451 µM (active) | 2.45 µM (inactive) | 0.152 µM (active) | 0.118 µM (active) | 4.66 µM (inactive) | 11.7 µM (inactive) | 0.589 µM (active) |  |  |  |  |  | 
NCc1ccc(-c2ccc(-c3ccc(-c4ccc(CN)s4)s3)s2)s1 | > 100 µM (inactive) | > 100 µM (inactive) | > 100 µM (inactive) | > 100 µM (inactive) | > 100 µM (inactive) | > 100 µM (inactive) | > 100 µM (inactive) |  | > 100 µM (inactive) | > 100 µM (inactive) | > 100 µM (inactive) |  | > 100 µM (inactive) | > 100 µM (inactive) | > 100 µM (inactive) | > 100 µM (inactive) | > 100 µM (inactive) | > 100 µM (inactive)
C=C(CBr)CCCOCc1ccccc1 | 28.4 µM (inactive) | 21.2 µM (inactive) |  | 18.7 µM (inactive) | 20.2 µM (inactive) | 38.4 µM (inactive) | 22.2 µM (inactive) | 18.1 µM (inactive) | 30.8 µM (inactive) | 18.9 µM (inactive) | 17.6 µM (inactive) |  | 21.6 µM (inactive) | 18.6 µM (inactive) | 5.6 µM (inactive) | 15.5 µM (inactive) | 18.7 µM (inactive) | 30.6 µM (inactive)
S=C1C=C(c2ccccc2)Sc2ccccc2N1 |  | > 100 µM (inactive) | 61.7 µM (inactive) | > 100 µM (inactive) | > 100 µM (inactive) | > 100 µM (inactive) | 41.4 µM (inactive) | > 100 µM (inactive) | 30.4 µM (inactive) | > 100 µM (inactive) | > 100 µM (inactive) | 19.5 µM (inactive) |  |  | > 100 µM (inactive) | > 100 µM (inactive) | > 100 µM (inactive) | > 100 µM (inactive)
O=C1CC(C(COCc2ccccc2)OCc2ccccc2)CC(=O)N1 (stereo unspecified) | > 100 µM (inactive) | > 100 µM (inactive) |  | > 100 µM (inactive) |  | > 100 µM (inactive) | > 100 µM (inactive) |  | > 100 µM (inactive) | > 100 µM (inactive) |  | > 100 µM (inactive) | > 100 µM (inactive) |  | > 100 µM (inactive) | > 100 µM (inactive) |  | > 100 µM (inactive)
